Assay results as given in patent US20090176996A1, “PROCESS FOR THE PREPARATION OF SULFAMIDE DERIVATIVES” (priority 2008, published 2009).

melting point: 102 to 104 °C
Compound: NS(=O)(=O)NCc1ccccc1 (hydrate or solvate) [Example 5, Benzylsulfamide]
